Assay results reported in article PMC11285371 (Journal of medicinal chemistry, 2023).
“And” between values parts separate entries of the source, which are not always exact repeats. Identical values can stand only once. “Also recorded” adds a separate entry of the source.

Assays:
[1] = test system: drug-tolerant Mtb persisters; format: cell-based, Mycobacterium tuberculosis
15 mammalian cell lines = conditions: cited from earlier work
[2] = test system: Cas1 glioblastoma cell line; conditions: cited from earlier work
[3] = cited from earlier work
TGFBR1 [4] = molecular target: T1, TGFBR1 (Homo sapiens, UniProt P36897); assay: TGFBR1 DiscoverX KINOMEscan binding assay
T1 sequence (P36897 34-503): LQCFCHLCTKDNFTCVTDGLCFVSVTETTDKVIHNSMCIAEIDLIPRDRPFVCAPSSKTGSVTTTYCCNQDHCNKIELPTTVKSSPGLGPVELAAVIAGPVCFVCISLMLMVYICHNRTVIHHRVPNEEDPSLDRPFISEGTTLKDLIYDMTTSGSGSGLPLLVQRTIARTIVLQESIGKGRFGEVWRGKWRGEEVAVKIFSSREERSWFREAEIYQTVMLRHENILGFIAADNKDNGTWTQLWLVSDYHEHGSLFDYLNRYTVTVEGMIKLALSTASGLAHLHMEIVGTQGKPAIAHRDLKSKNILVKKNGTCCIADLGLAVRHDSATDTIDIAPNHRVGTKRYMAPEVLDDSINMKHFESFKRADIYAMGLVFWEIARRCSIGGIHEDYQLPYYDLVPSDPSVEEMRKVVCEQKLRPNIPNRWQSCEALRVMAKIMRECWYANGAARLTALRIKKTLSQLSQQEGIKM

[5] = 0.5 h
Mtb H37Rv::luxCDAB = format: cell-based, Mycobacterium tuberculosis
in vivo = conditions: CD1, mouse, po, 10 mg/kg, T1/2
192 human kinases = conditions: 10 μM, K192 NanoBRET panel
TGFBR1 [6] = molecular target: T1, TGFBR1; format: biochemical
[7] = test system: Mtb H37Rv strain expressing GFP; assay: microbe, parasite or virus in culture; format: cell-based; conditions: Mycobacterium tuberculosis

Cc1cccc(-c2nc(Nc3ccncc3)c3ccccc3n2)n1 [AQA]
killing of persisters (cfu, in words) [1]: further reduction of viable bacteria; also recorded: full activity against persisters
toxicity against mammalian cell lines (in words) (15 mammalian cell lines): minimal toxicity
toxicity against Cas1 glioblastoma cell line (in words) [2]: moderate toxicity
acute toxicity (in words) ([3]; 5 mg/kg p.o. in rats): no acute toxicity
bioavailability (in words) ([3]; 5 mg/kg p.o. in rats): poor
oral bioavailability (in words) ([3]; rats): modest oral bioavailability

CC[C@@H](CO)NCCN[C@@H](CC)CO [EMB, ethambutol]
killing of persisters (cfu, in words) [1]: did not increase the level of killing by RIF and INH further

Cc1cccc(-c2nc(Nc3ccc4nc(C)sc4c3)c3ccccc3n2)n1 [compound 7]
TGFBR1 binding activity (in words) (TGFBR1 [4]): lost activity against TGFBR1
metabolic stability in mouse liver microsomes (in words) [5]: very low metabolic stability

Cc1cccc(-c2nc(Nc3ccc4c(c3)ncn4C)c3ccccc3n2)n1 [compound 10]
antibacterial activity against nonreplicating Mtb (in words, relative to AQA) (Mtb H37Rv::luxCDAB): reduced bactericidal activity

Cc1cccc(-c2nc(Nc3ccc4[nH]ncc4c3)c3ccccc3n2)n1 [compound 11]
metabolic stability in mouse liver microsomes (in words) [5]: very low metabolic stability

Cc1cccc(-c2nc(Nc3ccc4c(cnn4C)c3)c3ccccc3n2)n1 [compound 12]
metabolic stability in mouse liver microsomes (in words) [5]: very low metabolic stability

Cc1cccc(-c2nc(Nc3ccc4nn[nH]c4c3)c3ccccc3n2)n1 [compound 14]
antibacterial activity against nonreplicating Mtb (in words, relative to AQA) (Mtb H37Rv::luxCDAB): reduced bactericidal activity

Cc1cccc(-c2nc(Nc3ccc4nn(C)nc4c3)c3ccccc3n2)n1 [compound 16]
half-life (in vivo): > 3 h

Cc1cccc(-c2nc(Nc3ccc4nnn(C)c4c3)c3ccccc3n2)n1 [compound 17]
metabolic stability in mouse liver microsomes (in words) [5]: very low metabolic stability

Cc1cccc(-c2nc(Nc3ccc4ccsc4c3)c3ccccc3n2)n1 [compound 22]
metabolic stability in mouse liver microsomes (in words) [5]: very low metabolic stability

Clc1cccc(-c2nc(Nc3ccncc3)c3ccccc3n2)n1 [compound 25]
activity in the Mtb assay (in words) (Mtb H37Rv::luxCDAB): retained potent antibacterial activity; also recorded: matched the activity of AQA in the Mtb assay
metabolic stability in mouse liver microsomes (in words) [5]: comparable

Fc1cccc(-c2nc(Nc3ccncc3)c3ccccc3n2)n1 [compound 26]
activity in the Mtb assay (in words) (Mtb H37Rv::luxCDAB): reduced activity

FC(F)(F)c1cccc(-c2nc(Nc3ccncc3)c3ccccc3n2)n1 [compound 27]
activity in the Mtb assay (in words) (Mtb H37Rv::luxCDAB): reduced activity

COc1cccc(-c2nc(Nc3ccncc3)c3ccccc3n2)n1 [compound 28]
activity in the Mtb assay (in words) (Mtb H37Rv::luxCDAB): greatly reduced activity

c1ccc(-c2nc(Nc3ccncc3)c3ccccc3n2)nc1 [compound 29]
activity in the Mtb assay (in words) (Mtb H37Rv::luxCDAB): reduced activity
metabolic stability in mouse liver microsomes (in words) [5]: comparable

c1cncc(-c2nc(Nc3ccncc3)c3ccccc3n2)c1 [compound 30]
activity in the Mtb assay (in words) (Mtb H37Rv::luxCDAB): inactive

c1ccc2c(Nc3ccncc3)nc(-c3cnccn3)nc2c1 [compound 31]
activity in the Mtb assay (in words) (Mtb H37Rv::luxCDAB): greatly reduced Mtb activity

COc1cncc(-c2nc(Nc3ccncc3)c3ccccc3n2)n1 [compound 32]
activity in the Mtb assay (in words) (Mtb H37Rv::luxCDAB): greatly reduced Mtb activity

c1cnc(-c2nc(Nc3ccncc3)c3ccccc3n2)nc1 [compound 33]
activity in the Mtb assay (in words) (Mtb H37Rv::luxCDAB): greatly reduced Mtb activity

Cc1csc(-c2nc(Nc3ccncc3)c3ccccc3n2)n1 [compound 39]
activity in the Mtb assay (in words) (Mtb H37Rv::luxCDAB): lost activity against Mtb

COc1ccc2nc(-c3cccc(C)n3)nc(Nc3ccncc3)c2c1 [compound 40]
activity in the Mtb assay (in words) (Mtb H37Rv::luxCDAB): retained both potent bactericidal activity and TGFBR1 enzyme inhibition at 1 and 10 μM; also recorded: matched the activity of AQA in the Mtb assay
metabolic stability in mouse liver microsomes (in words) [5]: improved metabolic stability

Cc1cccc(-c2nc(Nc3ccncc3)c3cc(O)ccc3n2)n1 [compound 41]
activity in the Mtb assay (in words) (Mtb H37Rv::luxCDAB): less active
metabolic stability in mouse liver microsomes (in words) [5]: improved metabolic stability

COc1ccc2c(Nc3ccncc3)nc(-c3cccc(C)n3)nc2c1 [compound 42]
activity in the Mtb assay (in words) (Mtb H37Rv::luxCDAB): less active

Cc1cccc(-c2nc(Nc3ccncc3)c3ccn(C)c3n2)n1 [compound 43]
activity in the Mtb assay (in words) (Mtb H37Rv::luxCDAB): retained potent Mtb activity; also recorded: matched the activity of AQA in the Mtb assay; also recorded: low-micromolar activity against nonreplicating Mtb
additional human kinases on which the compound was active (192 human kinases): 7/192

Cc1cccc(-c2nc(C)cc(Nc3ccncc3)n2)n1 [compound 44]
activity in the Mtb assay (in words) (Mtb H37Rv::luxCDAB): retained partial Mtb and TGFBR1 activity
TGFBR1 enzyme inhibition (in words) (TGFBR1 [6]): retained partial Mtb and TGFBR1 activity

Cc1cccc(-c2cc3ccccc3c(Nc3ccncc3)n2)n1 [compound 45]
activity in the Mtb assay (in words) (Mtb H37Rv::luxCDAB): weaker activity

Cc1cccc(-c2cc(Nc3ccncc3)c3ccccc3n2)n1 [compound 46]
activity in the Mtb assay (in words) (Mtb H37Rv::luxCDAB): weaker activity

NNC(=O)c1ccncc1 [isoniazid]
MIC [7]: 3.6 µM and 0.5 µg/mL
